# Test results taken from patent publication US5162305.
# Where two headings read alike, the source gives them in different places.
# Experiments:
# [1] = amide bond, pyridine/DMF
# [2] = the molecule shown is the open-chain precursor; amide bond; 20-membered ring; ONp active ester (from TFA-ONp)/pyridine; pyridine/DMF; 5.2 mM; 50.0 °C; 3 steps
compound,measurement,setting,value
H-Ser(Bzl)-Asn-Leu-Ser(Bzl)-Thr(Bzl)-4-CPA(ONp)-OMe?,"ring closure, isolated yield","[1]; the molecule shown is the open-chain precursor, 23-membered ring, p-nitrophenyl ester (from TFA-ONp)/pyridine, 1.33 mM, 50.0 °C, 3 steps",53.8%
H-bAla-Ser(Bzl)-Asn-Leu-Ser(Bzl)-Thr(Bzl)-Asp(ONp)-OEt?,"ring closure, isolated yield","[1]; the molecule shown is the open-chain precursor, 23-membered ring, p-nitrophenyl ester (from TFA-ONp)/pyridine, 4.6 mM, 50.0 °C, 3 steps",49.5%
COC(=O)[C@@H]1CSCC(=O)N[C@@H](COCc2ccccc2)C(=O)N[C@@H](CC(N)=O)C(=O)N[C@@H](CC(C)C)C(=O)N[C@@H](COCc2ccccc2)C(=O)N[C@@H]([C@@H](C)OCc2ccccc2)C(=O)N1 [H-Ser(Bzl)-Asn-Leu-Ser(Bzl)-Thr(Bzl)-Cmc(ONp)-OMe],"ring closure, isolated yield","[1]; from H-Ser(Bzl)-Asn-Leu-Ser(Bzl)-Thr(Bzl)-Cmc(ONp)-OMe, 21-membered ring, TFA-ONp/pyridine, TFA, pyridine, 55.0 °C, 3 steps",41%
H-Ser(Bzl)-Asn-Leu-Ser(Bzl)-Thr(Bzl)-Glu(ONp)-OBzl?,"ring closure, crude yield",[2],62.7%
COC(=O)[C@@H]1CCC(=O)NCCCCCC(=O)N[C@@H](CC(N)=O)C(=O)N[C@@H](CC(C)C)C(=O)N[C@@H](COCc2ccccc2)C(=O)N[C@@H]([C@@H](C)OCc2ccccc2)C(=O)N1 [H-Acp-Asn-Leu-Ser(Bzl)-Thr(Bzl)-Glu(ONp)-OMe],"ring closure, isolated yield","[1]; from H-Acp-Asn-Leu-Ser(Bzl)-Thr(Bzl)-Glu(ONp)-OMe, 24-membered ring, TFA-ONp/pyridine, TFA, pyridine, 55.0 °C, 3 steps",45.9%
CCOC(=O)[C@@H]1CC(=O)NCC(=O)N[C@@H](COCc2ccccc2)C(=O)N[C@@H](CC(N)=O)C(=O)N[C@@H](CC(C)C)C(=O)N[C@@H](COCc2ccccc2)C(=O)N[C@@H]([C@@H](C)OCc2ccccc2)C(=O)N1 [H-Gly-Ser(Bzl)-Asn-Leu-Ser(Bzl)-Thr(Bzl)-Asp(ONp)-OEt],"ring closure, isolated yield","[1]; from H-Gly-Ser(Bzl)-Asn-Leu-Ser(Bzl)-Thr(Bzl)-Asp(ONp)-OEt, 22-membered ring, TFA-ONp/pyridine, TFA, pyridine, 55.0 °C, 3 steps",61.3%
COC(=O)[C@@H]1CCC(=O)NCCC(=O)N[C@@H](COCc2ccccc2)C(=O)N[C@@H](CC(N)=O)C(=O)N[C@@H](CC(C)C)C(=O)N[C@@H](COCc2ccccc2)C(=O)N[C@@H]([C@@H](C)OCc2ccccc2)C(=O)N1 [H-βAla-Ser(Bzl)-Asn-Leu-Ser(Bzl)-Thr(Bzl)-Glu(ONp)-OMe],"ring closure, isolated yield","[1]; from H-βAla-Ser(Bzl)-Asn-Leu-Ser(Bzl)-Thr(Bzl)-Glu(ONp)-OMe, 24-membered ring, TFA-ONp/pyridine, TFA, pyridine, 55.0 °C, 3 steps",68.1%
H-Ser(Bzl)-Asn-Leu-Ser(Bzl)-Thr(Bzl)-Tyr(CH2CO-ONp)-OMe,"ring closure, isolated yield","[1]; the molecule shown is the open-chain precursor, 25-membered ring, TFA-ONp/pyridine, TFA, pyridine, then N2H4, 55.0 °C, 4 steps",43.8%
H-Gly-Ser(Bzl)-Asn-Leu-Ser(Bzl)-Thr(Bzl)-Glu(ONp)-OBzl?,"ring closure, isolated yield","[1]; the molecule shown is the open-chain precursor, 23-membered ring, p-nitrophenyl ester (from TFA-ONp)/pyridine, 1.2 mM, 50.0 °C, 3 steps",50.7%
CCOC(=O)[C@@H]1CC(=O)NCCCCCC(=O)N[C@@H](CC(N)=O)C(=O)N[C@@H](CC(C)C)C(=O)N[C@@H](COCc2ccccc2)C(=O)N[C@@H]([C@@H](C)OCc2ccccc2)C(=O)N1 [H-Acp-Asn-Leu-Ser(Bzl)-Thr(Bzl)-Asp(ONp)-OEt],"ring closure, isolated yield","[1]; from H-Acp-Asn-Leu-Ser(Bzl)-Thr(Bzl)-Asp(ONp)-OEt, 23-membered ring, TFA-ONp/pyridine, TFA, pyridine, 55.0 °C, 3 steps",26.6%
COC(=O)[C@@H]1CCCCNC(=O)CCC(=O)N[C@@H](CC(N)=O)C(=O)N[C@@H](CC(C)C)C(=O)N[C@@H](COCc2ccccc2)C(=O)N[C@@H]([C@@H](C)OCc2ccccc2)C(=O)N1 [-COCH2 CH2 Co-Asn-Leu-Ser(Bzl)-Thr(Bzl)-Lys--OCH3],"ring closure, isolated yield","[1]; from H-Asn-Leu-Ser(Bzl)-Thr(Bzl)-Lys(COCH2CH2CO-ONp)-OMe, 23-membered ring, TFA-ONp/pyridine, TFA, pyridine, 55.0 °C, 3 steps",34.9%
COC(=O)[C@@H]1CSCCCC(=O)N[C@@H](COCc2ccccc2)C(=O)N[C@@H](CC(N)=O)C(=O)N[C@@H](CC(C)C)C(=O)N[C@@H](COCc2ccccc2)C(=O)N[C@@H]([C@@H](C)OCc2ccccc2)C(=O)N1 [H-Ser(Bzl)-Asn-Leu-Ser(Bzl)-Thr(Bzl)-Cpc(ONp)-OMe],"ring closure, isolated yield","[1]; from H-Ser(Bzl)-Asn-Leu-Ser(Bzl)-Thr(Bzl)-Cpc(ONp)-OMe, 23-membered ring, TFA-ONp/pyridine, TFA, pyridine, 55.0 °C, 3 steps",55.9%
COC(=O)[C@@H]1CCCCNC(=O)CCC(=O)N[C@@H](COCc2ccccc2)C(=O)N[C@@H](CC(N)=O)C(=O)N[C@@H](CC(C)C)C(=O)N[C@@H](COCc2ccccc2)C(=O)N[C@@H]([C@@H](C)OCc2ccccc2)C(=O)N1 [H-Ser(Bzl)-Asn-Leu-Ser(Bzl)-Thr(Bzl)-Lys(COCH2CH2CO-ONp)-OMe],"ring closure, isolated yield","[1]; from H-Ser(Bzl)-Asn-Leu-Ser(Bzl)-Thr(Bzl)-Lys(COCH2CH2CO-ONp)-OMe, 26-membered ring, TFA-ONp/pyridine, TFA, pyridine, 2.6 mM, 55.0 °C, 3 steps",55.5%
